Measurements reported in patent publication US10363252B2, “Treatment of prostate cancer using hedgehog pathway inhibitors” (HEDGEPATH PHARMACEUTICALS, INC., priority 2013, dated 2019).

Columns and labels:
[1] = plasma trough level of itraconazole required for clinical benefit in humans with cancer; assay type: in vivo, human
Procedure: In particular, the minimum plasma trough level after 4 weeks of therapy required to have a clinically significant effect was at least 1000 ng/ml. Achieving these levels of itraconazole is enhanced by the use of formulations with greater bioavailability such as SUBA-CAP™ formulation. […] These side effects associated with these high doses of itraconazole can be effectively managed by giving a selective mineralocorticoid antagonist, such as eplerenone. Accordingly, in some embodiments, the method further comprises administering eplerenone or other mineralocorticoid inhibitor.

[2] = system: HhP; details: major metabolite of itraconazole; cited from earlier work

Compound | side-effects peculiar to high doses ([1]; high doses of itraconazole) | concentration at 4 weeks ([1]; human, plasma, after 4 weeks of therapy, humans with cancer, read-out: minimum plasma trough level required to have a clinically significant effect) [ng/mL] | potency as a HhP inhibitor relative to itraconazole [2]
CCC(C)n1ncn(-c2ccc(N3CCN(c4ccc(OCC5COC(Cn6cncn6)(c6ccc(Cl)cc6Cl)O5)cc4)CC3)cc2)c1=O (stereo not drawn) [itraconazole] | hypertension, peripheral edema, and hypokalemia | ≥ 1000 | 
hydroxy-itraconazole |  |  | not equipotent
